Assay results taken from US11053241B2, “TYK2 inhibitors and uses thereof” (Nimbus Lakshmi, Inc., priority 2018, dated 2021).
pKd: −log10 of the molar value.

Biological target: human TYK2 (JH2domain-pseudokinase) (Homo sapiens (Human), UniProt P29597)
Experiment: TYK2 JH2 Domain Binding Assay (KINOMEscan)
Details: 11-point 3-fold dilution, top concentration 30,000 nM, duplicate
Description: Binding constants for compounds of the present invention against the JH2 domain were determined by the following protocol for a KINOMEscan® assay (DiscoveRx). A fusion protein of a partial length construct of human TYK2 (JH2domain-pseudokinase) (amino acids G556 to D888 based on reference sequence NP_003322.3) and the DNA binding domain of NFkB was expressed in transiently transfected HEK293 cells. From these HEK 293 cells, extracts were prepared in M-PER extraction buffer (Pierce) in the presence of Protease Inhibitor Cocktail Complete (Roche) and Phosphatase Inhibitor Cocktail Set II (Merck) per manufacturers' instructions. The TYK2(JH2domain-pseudokinase) fusion protein was labeled with a chimeric double-stranded DNA tag containing the NFkB binding site (5′-GGGAATTCCC-3′) fused to an amplicon for qPCR readout, which was added directly to the expression extract (the final concentration of DNA-tag in the binding reaction is 0.1 nM).
Streptavidin-coated magnetic beads (Dynal M280) were treated with a biotinylated small molecule ligand for 30 minutes at room temperature to generate affinity resins for the binding assays. The liganded beads were blocked with excess biotin and washed with blocking buffer (SeaBlock (Pierce), 1% BSA, 0.05% Tween 20, 1 mM DTT) to remove unbound ligand and to reduce nonspecific binding.
The binding reaction was assembled by combining 16 μl of DNA-tagged kinase extract, 3.8 μl liganded affinity beads, and 0.18 μl test compound (PBS/0.05% Tween 20/10 mM DTT/0.1% BSA/2 μg/ml sonicated salmon sperm DNA). Extracts were used directly in binding assays without any enzyme purification steps at a ≥10,000-fold overall stock dilution (final DNA-tagged enzyme concentration <0.1 nM). Extracts were loaded with DNA-tag and diluted into the binding reaction in a two step process. First extracts were diluted 1:100 in 1× binding buffer (PBS/0.05% Tween 20/10 mM DTT/0.1% BSA/2 μg/ml sonicated salmon sperm DNA) containing 10 nM DNA-tag. This dilution was allowed to equilibrate at room temperature for 15 minutes and then subsequently diluted 1:100 in 1× binding buffer. All reactions were performed in polypropylene 384-well plates. Each was a final volume of 0.02 mL. Assays were incubated with shaking for 1 hour at room temperature. Then the beads were pelleted and washed with wash buffer (1×PBS, 0.05% Tween 20) to remove displaced kinase and test compound. The washed based were re-suspended in elution buffer (1×PBS, 0.05% Tween 20, 0.5 μM non-biotinylated affinity ligand) and incubated at room temperature with shaking for 30 minutes. The kinase concentration in the eluates was measured by qPCR. qPCR reactions were assembled by adding 2.5 μL of kinase eluate to 7.5 μL of qPCR master mix containing 0.15 μM amplicon primers and 0.15 μM amplicon probe. The qPCR protocol consisted of a 10 minute hot start at 95° C., followed by 35 cycles of 95° C. for 15 seconds, 60° C. for 1 minute.
Test compounds were prepared as 111× stocks in 100% DMSO. Kd values were determined using an 11-point 3-fold compound dilution series with three DMSO control points. All compounds for Kd measurements are distributed by acoustic transfer (non-contact dispensing) in 100% DMSO. The compounds were then diluted directly into the assays such that the final concentration of DMSO was 0.9%. The Kd values were determined using a compound top concentration of 30,000 nM. Kd measurements were performed in duplicate.
Binding constants (Kds) were calculated with a standard dose-response curve using the Hill equation: […]
The Hill Slope was set to −1. Curves were fitted using a non-linear least square fit with the Levenberg-Marquardt algorithm (Levenberg, K., A method for the solution of certain non-linear problems in least squares, Q. Appl. Math. 2, 164-168 (1944)).

Sequence of human TYK2 (JH2domain-pseudokinase) (P29597 556-888): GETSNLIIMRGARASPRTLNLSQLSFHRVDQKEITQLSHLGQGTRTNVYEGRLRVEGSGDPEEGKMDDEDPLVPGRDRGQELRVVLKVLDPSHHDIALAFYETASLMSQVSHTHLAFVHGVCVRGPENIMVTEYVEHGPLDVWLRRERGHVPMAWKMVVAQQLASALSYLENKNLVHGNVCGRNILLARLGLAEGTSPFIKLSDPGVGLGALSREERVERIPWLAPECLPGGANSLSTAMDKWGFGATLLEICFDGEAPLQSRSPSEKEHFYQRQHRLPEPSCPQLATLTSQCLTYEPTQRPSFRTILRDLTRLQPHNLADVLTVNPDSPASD

SMILES | pKd
CNC(=O)c1cnc(NC(=O)C2CC2)c2[nH]c(-c3cccc(C4CCCO4)c3F)cc12 (stereo not drawn) [Compound I-95, 7-(cyclopropanecarboxamido)-2-(2-fluoro-3-(tetrahydrofuran-2-yl)phenyl)-N-methyl-1H-pyrrolo[2,3-c]pyridine-4-carboxamide] | > 9.70
CNC(=O)c1cnc(NC(=O)C2CC2)c2[nH]c(-c3ccc(OC)cc3[C@H]3COCCO3)cc12 [Compound I-71] | < 8.00
CNC(=O)c1cnc(NC(=O)C2CC2)c2[nH]c(-c3cccc(-c4cn(C)c(C)n4)c3F)cc12 [Compound I-67] | > 9.70
CNC(=O)c1cnc(NC(=O)C2CC2)c2[nH]c(-c3cccn(C4CCCOC4)c3=O)cc12 (stereo not drawn) [Compound I-43, 7-(cyclopropanecarboxamido)-N-methyl-2-(2-oxo-1-(tetrahydro-2H-pyran-3-yl)-1,2-dihydropyridin-3-yl)-1H-pyrrolo[2,3-c]pyridine-4-carboxamide] | 9.00 to 9.70
CNC(=O)c1cnc(NC(=O)C2CC2)c2[nH]c(-c3cccc(-c4cn5c(n4)COCC5)c3F)cc12 [Compound I-79, 7-(cyclopropanecarboxamido)-2-(3-(5,6-dihydro-8H-imidazo[2,1-c][1,4]oxazin-2-yl)-2-fluorophenyl)-N-methyl-1H-pyrrolo[2,3-c]pyridine-4-carboxamide] | > 9.70
CNC(=O)c1cnc(NC(=O)C2CC2)c2[nH]c(-c3ccc(-c4nccs4)cc3OC)cc12 [Compound I-60, 7-(cyclopropanecarboxamido)-2-(2-methoxy-4-(thiazol-2-yl)phenyl)-N-methyl-1H-pyrrolo[2,3-c]pyridine-4-carboxamide] | > 9.70
CNC(=O)c1cnc(NC(=O)C2CC2)c2[nH]c(-c3cccc(N4CCC4)c3C#N)cc12 [Compound I-41, 2-(3-(azetidin-1-yl)-2-cyanophenyl)-7-(cyclopropanecarboxamido)-N-methyl-1H-pyrrolo[2,3-c]pyridine-4-carboxamide] | 8.00 to 9.00
CNC(=O)c1cnc(Nc2ccn(C)n2)c2[nH]c(-c3ccccc3)cc12 [Compound I-93, N-methyl-7-((1-methyl-1H-pyrazol-3-yl)amino)-2-phenyl-1H-pyrrolo[2,3-c]pyridine-4-carboxamide] | 9.00 to 9.70
CNC(=O)c1cnc(NC(=O)C2CC2)c2[nH]c(-c3ccccc3N3CCC(O)CC3)cc12 [Compound I-46, 7-(cyclopropanecarboxamido)-2-(2-(4-hydroxypiperidin-1-yl)phenyl)-N-methyl-1H-pyrrolo[2,3-c]pyridine-4-carboxamide] | 9.00 to 9.70
CNC(=O)c1cnc(NC(=O)C2CC2)c2[nH]c(-c3ccc(-c4nncn4C)cc3F)cc12 [Compound I-62, 7-(cyclopropanecarboxamido)-2-(2-fluoro-4-(4-methyl-4H-1,2,4-triazol-3-yl)phenyl)-N-methyl-1H-pyrrolo[2,3-c]pyridine-4-carboxamide] | > 9.70

Next, values leading:

pKd | SMILES
9.00 to 9.70 | CNC(=O)c1cnc(NC(=O)C2CC2)c2[nH]c(-c3cccc(-c4cnn(C)c4)c3C#N)cc12 [Compound I-45, 2-(2-cyano-3-(1-methyl-1H-pyrazol-4-yl)phenyl)-7-(cyclopropane-carboxamido)-N-methyl-1H-pyrrolo[2,3-c]pyridine-4-carboxamide]
> 9.70 | CNC(=O)c1cnc(NC(=O)C2CC2)c2[nH]c(-c3c(F)cc(-c4nccn4C)cc3N3CC[C@@H](OC)C3)cc12 [Compound I-90, (R)-7-(cyclopropanecarboxamido)-2-(2-fluoro-6-(3-methoxypyrrolidin-1-yl)-4-(1-methyl-1H-imidazol-2-yl)phenyl)-N-methyl-1H-pyrrolo[2,3-c]pyridine-4-carboxamide]
> 9.70 | CNC(=O)c1cnc(NC(=O)C2CC2)c2[nH]c(-c3ccc(OC[C@@H]4CCCO4)cc3F)cc12 [Compound I-88, (S)-7-(cyclopropanecarboxamido)-2-(2-fluoro-4-((tetrahydrofuran-2-yl)methoxy)phenyl)-N-methyl-1H-pyrrolo[2,3-c]pyridine-4-carboxamide]
> 9.70 | CNC(=O)c1cnc(NC(=O)C2CC2)c2[nH]c(-c3cccc(-c4cn5c(n4)OCCC5)c3F)cc12 [Compound I-76, 7-(cyclopropanecarboxamido)-2-(3-(6,7-dihydro-5H-imidazo[2,1-b][1,3]oxazin-2-yl)-2-fluorophenyl)-N-methyl-1H-pyrrolo[2,3-c]pyridine-4-carboxamide]
9.00 to 9.70 | CNC(=O)c1cnc(NC(=O)C2CC2)c2[nH]c(-c3cccn(C4CCCOC4)c3=O)cc12 (stereo in doubt) [Compound I-56, (R)-7-(cyclopropanecarboxamido)-N-methyl-2-(2-oxo-1-(tetrahydro-2H-pyran-3-yl)-1,2-dihydropyridin-3-yl)-1H-pyrrolo[2,3-c]pyridine-4-carboxamide]
> 9.70 | CNC(=O)c1cnc(NC(=O)C2CC2)c2[nH]c(-c3ccc(C(=O)N4CC(F)(F)C4)cc3F)cc12 [Compound I-98, 7-(cyclopropanecarboxamido)-2-(4-(3,3-difluoroazetidine-1-carbonyl)-2-fluorophenyl)-N-methyl-1H-pyrrolo[2,3-c]pyridine-4-carboxamide]
9.00 to 9.70 | CNC(=O)c1cnc(NC(=O)C2CC2)c2[nH]c(-c3ccc(C(=O)N4CC(F)(F)C4)cn3)cc12 [Compound I-53, 7-(cyclopropanecarboxamido)-2-(5-(3,3-difluoroazetidine-1-carbonyl)pyridin-2-yl)-N-methyl-1H-pyrrolo[2,3-c]pyridine-4-carboxamide]
< 8.00 | CNC(=O)c1cnc(NC(=O)C2CC2)c2[nH]c(N3CCCCC3)cc12 [Compound I-96, 7-(cyclopropanecarboxamido)-N-methyl-2-(piperidin-1-yl)-1H-pyrrolo[2,3-c]pyridine-4-carboxamide]
< 8.00 | CNC(=O)c1cnc(NC(=O)C2CC2)c2[nH]c(-c3ccc(C4COCCO4)cc3OC)cc12 (stereo not drawn) [Compound I-61, 2-(4-(1,4-dioxan-2-yl)-2-methoxyphenyl)-7-(cyclopropanecarboxamido)-N-methyl-1H-pyrrolo[2,3-c]pyridine-4-carboxamide]
> 9.70 | CNC(=O)c1cnc(Nc2ccn(C)n2)c2[nH]c(-c3cccc(-c4cnc(C)o4)c3F)cc12 [Compound I-99, 2-(2-fluoro-3-(2-methyloxazol-5-yl)phenyl)-N-methyl-7-((1-methyl-1H-pyrazol-3-yl)amino)-1H-pyrrolo[2,3-c]pyridine-4-carboxamide]
9.00 to 9.70 | CNC(=O)c1cnc(NC(=O)C2CC2)c2[nH]c(-c3ccc(-c4ccn(C)n4)cc3F)cc12 [Compound I-101]
> 9.70 | CNC(=O)c1cnc(NC(=O)C2CC2)c2[nH]c(-c3c(F)cc(-c4nccn4C)cc3F)cc12 [Compound I-77, 7-(cyclopropanecarboxamido)-2-(2,6-difluoro-4-(1-methyl-1H-imidazol-2-yl)phenyl)-N-methyl-1H-pyrrolo[2,3-c]pyridine-4-carboxamide]
> 9.70 | CNC(=O)c1cnc(Nc2ccn(C)n2)c2[nH]c(-c3cccc(-c4cnn(C)c4)c3F)cc12 [Compound I-97, 2-(2-fluoro-3-(1-methyl-1H-pyrazol-4-yl)phenyl)-N-methyl-7-((1-methyl-1H-pyrazol-3-yl)amino)-1H-pyrrolo[2,3-c]pyridine-4-carboxamide]
9.00 to 9.70 | CNC(=O)c1cnc(NC(=O)C2CC2)c2[nH]c(-c3ccc(C4COCCO4)cc3OC)cc12 (stereo not drawn) [Compound I-89, 2-(4-(1,4-dioxan-2-yl)-2-methoxyphenyl)-7-(cyclopropanecarboxamido)-N-methyl-1H-pyrrolo[2,3-c]pyridine-4-carboxamide]
